Experiments:
Type in all cases: in vivo
[1] = system: Avena fatua (AVEFA); test: Example A glasshouse herbicide test, pre-emergence, AVEFA; conditions: Avena fatua, pre-emergence, 312 h, Rate 250 g/ha, sprayed after cultivation for one day, evaluated after 13 days, read-out: Pre-Emergence Activity AVEFA (100=total damage to plant; 0=no damage to plant)
Procedure: (§1) Seeds of a variety of test species are sown in standard soil in pots. After cultivation for one day (pre-emergence) or after 8 days cultivation (post-emergence) under controlled conditions in a glasshouse (at 24/16° C., day/night; 14 hours light; 65% humidity), the plants are sprayed with an aqueous spray solution derived from the formulation of the technical active ingredient in acetone/water (50:50) solution containing 0.5% Tween 20 (polyoxyethelyene sorbitan monolaurate, CAS RN 9005-64-5).
(§2) The test plants are then grown in a glasshouse under controlled conditions in a glasshouse (at 24/16° C., day/night; 14 hours light; 65% humidity) and watered twice daily. After 13 days for pre and post-emergence, the test is evaluated (100=total damage to plant; 0=no damage to plant).
(§3) Lolium perenne (LOLPE), Alopecurus myosuroides (ALOMY), Echinochloa crus-galli (ECHCG), Avena fatua (AVEFA)

[2] = system: Alopecurus myosuroides (ALOMY); test: Example A glasshouse herbicide test, pre-emergence, ALOMY; conditions: Alopecurus myosuroides, pre-emergence, 312 h, Rate 250 g/ha, sprayed after cultivation for one day, evaluated after 13 days, read-out: Pre-Emergence Activity ALOMY (100=total damage to plant; 0=no damage to plant)
Procedure: as §1, §2, §3

[3] = system: Lolium perenne (LOLPE); test: Example A glasshouse herbicide test, post-emergence, LOLPE; conditions: Lolium perenne, post-emergence, 312 h, Rate 250 g/ha, sprayed after 8 days cultivation, evaluated after 13 days, read-out: Post-Emergence Activity LOLPE (100=total damage to plant; 0=no damage to plant)
Procedure: as §1, §2, §3

[4] = system: Lolium perenne (LOLPE); test: Example A glasshouse herbicide test, pre-emergence, LOLPE; conditions: Lolium perenne, pre-emergence, 312 h, Rate 250 g/ha, sprayed after cultivation for one day, evaluated after 13 days, read-out: Pre-Emergence Activity LOLPE (100=total damage to plant; 0=no damage to plant)
Procedure: as §1, §2, §3

[5] = system: Echinochloa crus-galli (ECHCG); test: Example A glasshouse herbicide test, pre-emergence, ECHCG; conditions: Echinochloa crus-galli, pre-emergence, 312 h, Rate 250 g/ha, sprayed after cultivation for one day, evaluated after 13 days, read-out: Pre-Emergence Activity ECHCG (100=total damage to plant; 0=no damage to plant)
Procedure: as §1, §2, §3

[6] = system: Avena fatua (AVEFA); test: Example A glasshouse herbicide test, post-emergence, AVEFA; conditions: Avena fatua, post-emergence, 312 h, Rate 250 g/ha, sprayed after 8 days cultivation, evaluated after 13 days, read-out: Post-Emergence Activity AVEFA (100=total damage to plant; 0=no damage to plant)
Procedure: as §1, §2, §3

[7] = system: Echinochloa crus-galli (ECHCG); test: Example A glasshouse herbicide test, post-emergence, ECHCG; conditions: Echinochloa crus-galli, post-emergence, 312 h, Rate 250 g/ha, sprayed after 8 days cultivation, evaluated after 13 days, read-out: Post-Emergence Activity ECHCG (100=total damage to plant; 0=no damage to plant)
Procedure: as §1, §2, §3

[8] = system: Alopecurus myosuroides (ALOMY); test: Example A glasshouse herbicide test, post-emergence, ALOMY; conditions: Alopecurus myosuroides, post-emergence, 312 h, Rate 250 g/ha, sprayed after 8 days cultivation, evaluated after 13 days, read-out: Post-Emergence Activity ALOMY (100=total damage to plant; 0=no damage to plant)
Procedure: as §1, §2, §3

Structure (SMILES) | pest or weed control at 250 g/ha [1] | pest or weed control at 250 g/ha [2] | pest or weed control at 250 g/ha [3] | pest or weed control at 250 g/ha [4] | pest or weed control at 250 g/ha [5] | pest or weed control at 250 g/ha [6] | pest or weed control at 250 g/ha [7] | pest or weed control at 250 g/ha [8]
Cc1cc(C)c(C2C(=O)CC(CC3CCCCC3C)C2=O)c(C)c1 (stereo not shown) [Compound A29] | 50% | 50% | 90% | 90% | 90% | 0% | 50% | 0%
Cc1cc(C)c(C2=C(OC(=O)C(C)(C)C)CC(Cc3cc(F)cc(F)c3)C2=O)c(C)c1 (stereo not shown) [Compound B15] | 20% | 20% | 70% | 70% | 40% | 10% | 50% | 10%
Cc1cc(C)cc(CC2CC(OC(=O)C(C)(C)C)=C(c3c(C)cc(C)cc3C)C2=O)c1 (stereo not shown) [Compound B16] | 10% | 40% | 40% | 80% | 50% | 10% | 50% | 30%
Cc1cc(C)c(C2=C(OC(=O)C(C)(C)C)CC(Cc3ccc(S(C)(=O)=O)cc3)C2=O)c(C)c1 (stereo not shown) [Compound B18] | 60% | 60% | 50% | 70% | 80% | 80% | 80% | 70%
COc1ccc(CC2CC(OC(=O)C(C)(C)C)=C(c3c(C)cc(C)cc3C)C2=O)cc1 (stereo not shown) [Compound B19] | 30% | 40% | 80% | 80% | 10% | 60% | 30% | 80%
CC(=O)OC1CCC(CC2CC(=O)C(c3c(C)cc(C)cc3C)=C2OC(=O)C(C)(C)C)CC1 (stereo not shown) [Compound B4] |  |  | 90% |  |  | 80% | 70% | 60%
COC1CCC(/C=C2\CC(=O)C(c3c(C)cc(C)cc3C)C2=O)CC1 (stereo not shown) [Compound A39, 4-[1-(4-Methoxy-cyclohexyl)-meth-(E)-ylidene]-2-(2,4,6-trimethyl-phenyl)-cyclopentane-1,3-dione] | 80% | 60% | 50% | 50% | 100% | 90% | 100% | 90%

— patent publication US8791303B2, “Herbicides” (Syngenta Limited, priority 2009, dated 2014)
